Consider four compounds from US6514955B1, “Multi-faceted method to repress reproduction of latent viruses in humans and animals” (HIV Diagnostics, Inc., priority 1993, dated 2003).

The conditions of series [1]: cited from earlier work.
The target of another series is NADPH oxidase (Homo sapiens, UniProt P04839). The conditions noted are these: cited from earlier work.
The subject of the next series is hybridoma macrophages. As to the kind of experiment: Oxidant release in LPS or interferon activated hybridoma macrophages. The class given is cell-based. An excerpt:
PMA activates the oxidative burst. The oxidant detected is the same oxidant seen in Kupfer liver cells and lung macrophages: peroxynitrite.

Chain of NADPH oxidase (P04839 2-570 limits assumed): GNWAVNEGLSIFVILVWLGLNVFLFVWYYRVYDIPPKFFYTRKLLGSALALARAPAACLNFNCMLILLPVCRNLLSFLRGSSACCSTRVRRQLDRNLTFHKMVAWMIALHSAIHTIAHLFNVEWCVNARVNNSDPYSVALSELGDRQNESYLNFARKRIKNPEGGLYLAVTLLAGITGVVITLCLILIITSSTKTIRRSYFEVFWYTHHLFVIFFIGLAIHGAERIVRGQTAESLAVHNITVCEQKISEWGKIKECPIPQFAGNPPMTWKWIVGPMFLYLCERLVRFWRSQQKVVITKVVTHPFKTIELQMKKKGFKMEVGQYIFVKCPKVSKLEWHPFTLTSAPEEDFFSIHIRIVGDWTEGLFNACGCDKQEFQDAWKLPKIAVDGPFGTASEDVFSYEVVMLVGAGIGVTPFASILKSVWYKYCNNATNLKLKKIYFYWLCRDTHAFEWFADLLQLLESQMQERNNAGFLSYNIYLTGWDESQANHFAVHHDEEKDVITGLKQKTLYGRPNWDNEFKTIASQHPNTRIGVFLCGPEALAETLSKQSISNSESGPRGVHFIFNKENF
Chain of NADPH oxidase (P13498 2-195 partner limits assumed): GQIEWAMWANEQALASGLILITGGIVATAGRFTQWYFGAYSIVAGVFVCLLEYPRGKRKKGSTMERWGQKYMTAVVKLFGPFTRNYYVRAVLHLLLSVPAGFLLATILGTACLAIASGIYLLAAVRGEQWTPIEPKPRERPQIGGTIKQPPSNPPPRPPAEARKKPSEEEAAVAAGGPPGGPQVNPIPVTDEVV

Turning to `O=C1NC(C(=O)O)CS1` (stereo not shown) [2-oxo-4-thiazolidene carboxylic acid], in series [1] (in vivo, po), the “Oral doses administered without toxicity” value was 0.15 to 0.45 mmol/kg.
`CC(=O)N[C@@H](CS)C(=O)O` [N-acetyl cysteine]: the “Daily dose usable without toxic side effects” value in series [1] (man, daily) was “Up to 40 mg per kilogram of body weight”.
As for `c1ccc2c(c1)[I+]c1ccccc1-2` [diphenylene iodonium], the “Concentration printed for NADPH oxidase inhibitor” value on NADPH oxidase is 15 nM.
Consider `CCCCCCCCCCCCCC(=O)O[C@@H]1[C@@H](C)[C@@]2(O)[C@@H](C=C(CO)C[C@]3(O)C(=O)C(C)=C[C@@H]23)[C@@H]2C(C)(C)[C@]12OC(C)=O` [phorbol myristate acetate], for which, in the series with hybridoma macrophages, the “Stimulation of oxidant (peroxynitrite) produced” value is recorded as “about 40 fold”.
